From patent US20180207264A1, “PORCINE IMMUNE MODULATION MODEL” (Government of the United States as Represented by the …, priority 2017, published 2018)

Legend:
[1] = test system: MDA-MB-231 breast cancer cell; experiment: Cell death in hormone independent ER/PR negative breast cancer cell cultures; type: cell-based; conditions: 25 μM β-AED, 25 μM β-AET, 5 nM E2; PEG 300 with LIPOFECTAMINE vehicle
Procedure: (§1) Hormone dependent, noninvasive, epithelial phenotype (ER/PR positive MCF-7 breast cancer cells) and hormone independent, invasive, mesenchymal phenotype (ER/PR negative MDA-MB-231 breast cancer cell) cell suspensions were acquired and prepared in complete medium (DMEM/F12, 10% FBS, 1% penicillin/streptomycin (Gibco)). Cellular concentration was adjusted to 2×10^5 cells/mL.
(§2) Androstene hormone solutions according to embodiments of the present invention were prepared from a first solution and a second solution. For the first solution, 3.0 mg of β-AED or 3-AET was added to warm PEG 300 to prepare 50 mM stock. For the second solution, 10 μL of LIPOFECTAMINE (3:1 DOSPA:DOPE) was introduced to 100 μL of PEG 300, mixed, and incubated in a water bath at 42° C. for 30 min. The first and second solutions were then mixed in a sonicator water bath at 42° C. for 1 hr. The final concentration was 50 mM β-AED (or AET, as used).
(§3) A β-estradiol solution was also prepared by adding 2.7 mg of β-estradiol to 200 μL warmed PEG 300 with LIPOFECTAMINE and then further diluted 1:1000 with PEG-300. The final concentration was 50 μM.
A diluted β-AED (or 3-AET) solution was prepared with complete medium at a final concentration of 50 μM (1:1000 dilute of 50 mM). Likewise, a diluted β-E2 solution was prepared with complete medium at a final concentration of 10 nM (1:5000 dilute of 50 μM). […]

[2] = test system: MCF-7 breast cancer cells; experiment: Cell death and cell growth in hormone dependent ER/PR positive breast cancer cell cultures; type: cell-based; conditions: 5 nM E2; for MCF7 Cell Death Amount: 25 μM β-AED, 25 μM β-AET, PEG 300 with LIPOFECTAMINE vehicle
Procedure: as §1, §2, §3
A diluted β-AED (or 3-AET) solution was prepared with complete medium at a final concentration of 50 μM (1:1000 dilute of 50 mM). Likewise, a diluted β-E2 solution was prepared with complete medium at a final concentration of 10 nM (1:5000 dilute of 50 μM).
Using a 24-well plate, mixtures of 0.5 mL of cells per well with 0.5 mL of medium diluted hormone vehicle. Cell cultures were maintained at 90% humidity, 7% CO2, and 37° C.

293T cells = experiment: Biological function (phenotype, mobile cells) of androstene hormone treatments in 293T cells; type: cell-based, human; conditions: androstene hormone 25 μM
Procedure: A non-toxic vehicle for administration of androstene hormones according to embodiments of the present invention was prepared from a first solution and a second solution. The first solution, comprising liposomal formulation, was placed in PEG 300 to a concentration of 5% and heated in a sonicating water bath to about 45° C. The second solution, comprising a selected hormone (one or more of 5Δ-androsten-3β, 17α-diol, 5Δ-androsten-3β, 17β-diol, or 5Δ-androsten-3β,7β,17β-triol), was placed in PEG 300 and heated in a sonicating water bath to about 45° C. The first and second solutions were then combine and stirred until dissolved.
Biological function was tested in 293T cells, which is a human embryonic cell line transformed with Large T antigen […] SV40. This hypotriploid (polyploid) cell line is particularly useful in such transformation studies and has very distinct phenotypes when grown. All androstene hormone treatment applications were at concentrations of 25 μM.

[3] = grown for 5 days, 25 μM androstene hormone, PEG 300 with 5% LIPOFECTAMINE

SMILES | MDA-MB-231 Cell Death Amount [1] | MCF7 Cell Death Amount [2] | Cell growth / cell density of MCF-7 cells compared with vehicle (FIG. 14) [2, 3] | Particles / cell bodies produced by MCF-7 cells in response to treatment [2, 3] | Phenotype of 293T cells (cell islands, mobile cells, cell processes) (293T cells; vehicle PEG 300) | Phenotype of 293T cells (cell islands, mobile cells, cell processes) (293T cells; vehicle PEG 300 and LIPOFECTAMINE)
C[C@]12CC[C@H]3[C@@H](CC=C4C[C@@H](O)CC[C@@]43C)[C@@H]1CC[C@@H]2O [β-AED, androst-5-ene-3β, 17β-diol] | Not observed | Not observed | not as heath and there are areas of decreased density | small particles | cell islands are larger and there is a significant reduction in mobile cells | drastic decrease in, or morphological change, in mobile elements
C[C@]12CC[C@H]3[C@@H]([C@@H](O)C=C4C[C@@H](O)CC[C@@]43C)[C@@H]1CC[C@@H]2O [β-AET, 5-androstene-3β,7β, 17β-triol] | Not observed | Not observed | – | – | – | –
